In the case of `CC(=O)[C@H]1CC[C@H]2[C@@H]3CCC4=CC(=O)CC[C@]4(C)[C@H]3CC[C@]12C`, the solubility (mole fraction) (in 1,4-dioxane, 288.15 K) is reported as 0.0614, the solubility (mole fraction) (in 1,4-dioxane, 293.15 K) is reported as 0.073 and the solubility (mole fraction) (in 1,4-dioxane, 298.15 K) is reported as 0.0855. The solubility (mole fraction) (in 1,4-dioxane, 303.15 K) was 0.1, the solubility (mole fraction) (in 1,4-dioxane, 308.15 K) was 0.117 and the solubility (mole fraction) (in 1,4-dioxane, 313.15 K) was 0.136. The solubility (mole fraction) (in 1,4-dioxane, 318.15 K) was 0.156, the solubility (mole fraction) (in 1,4-dioxane, 323.15 K) was 0.179 and the solubility (mole fraction) (in THF, 278.15 K) was 0.0598. For the same molecule, the solubility (mole fraction) (in THF, 283.15 K) was 0.0701, the solubility (mole fraction) (in THF, 288.15 K) was 0.0816 and the solubility (mole fraction) (in THF, 293.15 K) was 0.0943. The solubility (mole fraction) (in THF, 298.15 K) was 0.109, the solubility (mole fraction) (in THF, 303.15 K) was 0.125 and the solubility (mole fraction) (in THF, 308.15 K) was 0.143. For the same molecule, the solubility (mole fraction) (in THF, 313.15 K) was 0.163, the solubility (mole fraction) (in THF, 318.15 K) was 0.185 and the solubility (mole fraction) (in THF, 323.15 K) was 0.209. The solubility (mole fraction) (in acetone, 278.15 K) was 0.0143, the solubility (mole fraction) (in acetone, 283.15 K) was 0.0187 and the solubility (mole fraction) (in acetone, 288.15 K) was 0.0244. It also gave a solubility (mole fraction) (in acetone, 293.15 K) of 0.0311, a solubility (mole fraction) (in acetone, 298.15 K) of 0.0397 and a solubility (mole fraction) (in acetone, 303.15 K) of 0.0494. It also gave a solubility (mole fraction) (in acetone, 308.15 K) of 0.0617, a solubility (mole fraction) (in acetone, 313.15 K) of 0.076 and a solubility (mole fraction) (in acetone, 318.15 K) of 0.094. It also gave a solubility (mole fraction) (in acetone, 323.15 K) of 0.116, a solubility (mole fraction) (in acetonitrile, 278.15 K) of 0.00716 and a solubility (mole fraction) (in acetonitrile, 283.15 K) of 0.0101. It also gave a solubility (mole fraction) (in acetonitrile, 288.15 K) of 0.0131, a solubility (mole fraction) (in acetonitrile, 293.15 K) of 0.0178 and a solubility (mole fraction) (in acetonitrile, 298.15 K) of 0.0235. It also gave a solubility (mole fraction) (in acetonitrile, 303.15 K) of 0.0305, a solubility (mole fraction) (in acetonitrile, 308.15 K) of 0.0396 and a solubility (mole fraction) (in acetonitrile, 313.15 K) of 0.0508. The solubility (mole fraction) (in acetonitrile, 318.15 K) was 0.0646, the solubility (mole fraction) (in acetonitrile, 323.15 K) was 0.0816 and the solubility (mole fraction) (in ethanol, 278.15 K) was 0.00337. It also gave a solubility (mole fraction) (in ethanol, 283.15 K) of 0.00455, a solubility (mole fraction) (in ethanol, 288.15 K) of 0.00623 and a solubility (mole fraction) (in ethanol, 293.15 K) of 0.00859. It also gave a solubility (mole fraction) (in ethanol, 298.15 K) of 0.0112, a solubility (mole fraction) (in ethanol, 303.15 K) of 0.0146 and a solubility (mole fraction) (in ethanol, 308.15 K) of 0.0192. It also gave a solubility (mole fraction) (in ethanol, 313.15 K) of 0.0251, a solubility (mole fraction) (in ethanol, 318.15 K) of 0.0319 and a solubility (mole fraction) (in ethanol, 323.15 K) of 0.0411. The solubility (mole fraction) (in ethyl acetate, 278.15 K) was 0.0142, the solubility (mole fraction) (in ethyl acetate, 283.15 K) was 0.0175 and the solubility (mole fraction) (in ethyl acetate, 288.15 K) was 0.0215. The solubility (mole fraction) (in ethyl acetate, 293.15 K) was 0.0266, the solubility (mole fraction) (in ethyl acetate, 298.15 K) was 0.0321 and the solubility (mole fraction) (in ethyl acetate, 303.15 K) was 0.039. It also gave a solubility (mole fraction) (in ethyl acetate, 308.15 K) of 0.0471, a solubility (mole fraction) (in ethyl acetate, 313.15 K) of 0.0566 and a solubility (mole fraction) (in ethyl acetate, 318.15 K) of 0.0671. The solubility (mole fraction) (in ethyl acetate, 323.15 K) was 0.0802, the solubility (mole fraction) (in isopropanol, 278.15 K) was 0.00314 and the solubility (mole fraction) (in isopropanol, 283.15 K) was 0.00446. The solubility (mole fraction) (in isopropanol, 288.15 K) was 0.00615, the solubility (mole fraction) (in isopropanol, 293.15 K) was 0.00841 and the solubility (mole fraction) (in isopropanol, 298.15 K) was 0.0115. It also gave a solubility (mole fraction) (in isopropanol, 303.15 K) of 0.0153, a solubility (mole fraction) (in isopropanol, 308.15 K) of 0.0203 and a solubility (mole fraction) (in isopropanol, 313.15 K) of 0.0269. It also gave a solubility (mole fraction) (in isopropanol, 318.15 K) of 0.0349, a solubility (mole fraction) (in isopropanol, 323.15 K) of 0.0455 and a solubility (mole fraction) (in methanol, 278.15 K) of 0.00232. The solubility (mole fraction) (in methanol, 283.15 K) was 0.00335, the solubility (mole fraction) (in methanol, 288.15 K) was 0.00472 and the solubility (mole fraction) (in methanol, 293.15 K) was 0.00676. The solubility (mole fraction) (in methanol, 298.15 K) was 0.0092, the solubility (mole fraction) (in methanol, 303.15 K) was 0.0127 and the solubility (mole fraction) (in methanol, 308.15 K) was 0.0173. It also gave a solubility (mole fraction) (in methanol, 313.15 K) of 0.0234, a solubility (mole fraction) (in methanol, 318.15 K) of 0.0308 and a solubility (mole fraction) (in methanol, 323.15 K) of 0.0412. It also gave a solubility (mole fraction) (in n-butanol, 278.15 K) of 0.00706, a solubility (mole fraction) (in n-butanol, 283.15 K) of 0.00947 and a solubility (mole fraction) (in n-butanol, 288.15 K) of 0.0127. It also gave a solubility (mole fraction) (in n-butanol, 293.15 K) of 0.0164, a solubility (mole fraction) (in n-butanol, 298.15 K) of 0.0211 and a solubility (mole fraction) (in n-butanol, 303.15 K) of 0.0268. For the same molecule, the solubility (mole fraction) (in n-butanol, 308.15 K) was 0.0346, the solubility (mole fraction) (in n-butanol, 313.15 K) was 0.0439 and the solubility (mole fraction) (in n-butanol, 318.15 K) was 0.0551. It also gave a solubility (mole fraction) (in n-butanol, 323.15 K) of 0.0682, a solubility (mole fraction) (in n-heptane, 278.15 K) of 0.000112 and a solubility (mole fraction) (in n-heptane, 283.15 K) of 0.00018. For the same molecule, the solubility (mole fraction) (in n-heptane, 288.15 K) was 0.000281, the solubility (mole fraction) (in n-heptane, 293.15 K) was 0.000425 and the solubility (mole fraction) (in n-heptane, 298.15 K) was 0.000617. The solubility (mole fraction) (in n-heptane, 303.15 K) was 0.000914, the solubility (mole fraction) (in n-heptane, 308.15 K) was 0.00135 and the solubility (mole fraction) (in n-heptane, 313.15 K) was 0.00198. The solubility (mole fraction) (in n-heptane, 318.15 K) was 0.00284, the solubility (mole fraction) (in n-heptane, 323.15 K) was 0.00402 and the solubility (mole fraction) (in n-propanol, 278.15 K) was 0.00527. For the same molecule, the solubility (mole fraction) (in n-propanol, 283.15 K) was 0.0071, the solubility (mole fraction) (in n-propanol, 288.15 K) was 0.00969 and the solubility (mole fraction) (in n-propanol, 293.15 K) was 0.0131. For the same molecule, the solubility (mole fraction) (in n-propanol, 298.15 K) was 0.0171, the solubility (mole fraction) (in n-propanol, 303.15 K) was 0.0227 and the solubility (mole fraction) (in n-propanol, 308.15 K) was 0.0294. It also gave a solubility (mole fraction) (in n-propanol, 313.15 K) of 0.0378, a solubility (mole fraction) (in n-propanol, 318.15 K) of 0.0485 and a solubility (mole fraction) (in n-propanol, 323.15 K) of 0.0614. It also gave a solubility (mole fraction) (in toluene, 278.15 K) of 0.0797, a solubility (mole fraction) (in toluene, 283.15 K) of 0.0907 and a solubility (mole fraction) (in toluene, 288.15 K) of 0.102. For the same molecule, the solubility (mole fraction) (in toluene, 293.15 K) was 0.115, the solubility (mole fraction) (in toluene, 298.15 K) was 0.13 and the solubility (mole fraction) (in toluene, 303.15 K) was 0.146. For the same molecule, the solubility (mole fraction) (in toluene, 308.15 K) was 0.162, the solubility (mole fraction) (in toluene, 313.15 K) was 0.182 and the solubility (mole fraction) (in toluene, 318.15 K) was 0.203. For the same molecule, the solubility (mole fraction) (in toluene, 323.15 K) was 0.225.

From BigSolDB 2.1
